The values below come from US20230346678A1, “TOPICAL COMPOSITIONS CONTAINING VITAMIN C” (priority 2022, published 2023).

The assay in a line: Oxygen radical absorbance capacity (ORAC) assay. It counts as biochemical. The protocol:
The combined anti-oxidant effects of combinations of ascorbic acid with various other known anti-oxidants was tested using the oxygen radical absorbance capacity (ORAC) assay according to the method described by Ou B, Hampsch Woodill M, Prior R. L. Development and validation of an improved oxygen radical absorbance capacity assay using fluorescein as the fluorescent probe. J Agric Food Chem. 2001, 49:4619 (using a slightly different ex/em wavelength readout and a narrower range of Trolox standards). This assay measures the ability of anti-oxidant “chain breakers” to inhibit the decline in disodium fluorescein (FL) fluorescence that is induced by the peroxyl radical generator, 2′,2′-Azobis (2-amidinopropane) dihydrochloride (AAPH). Distilled water was used as the negative control. Trolox (6-hydroxy-2,5,7,8-tetramethylchroman-2-carboxylic acid, a water-soluble analog of vitamin E sold by Hoffman-LaRoche having antioxidant properties) was used as the positive control.
The final ORAC values were calculated from the regression equation of net areas under the FL decay curve using a formula where Area Under the Curve (AUC)=1+(Point 1+Point 2+Point 3+ . . . +Point 15)/Point 1. The Trolox standards were then plotted as micromoles over AUC. The samples were solved using their AUC yielding the values in micromole (μmol) Trolox equivalent (TE) per ml. Applied BioSystems Cytofluor 4000 fluorometer & software was used for quantification. ORAC values of the test materials were expressed in μmoles TE/ml (TE=Trolox Equivalents).
All ingredients were stored at room temperature and then diluted with distilled water into aqueous stock solutions for testing. Further dilutions were made in distilled water within 24 h from testing.

Where [1] appears, read: second test run (second Table 3).

On to `O=C(O[C@@H]1Cc2c(O)cc(O)cc2O[C@@H]1c1cc(O)c(O)c(O)c1)c1cc(O)c(O)c(O)c1` [0.1% EGCG, epigallocatechin gallate], for which the ORAC (first test run (first Table 3)) is 7 μmoles TE/ml.
As to `CCOC1=C(O)C(=O)O[C@@H]1[C@@H](O)CO` [0.5% Ethyl L-Ascorbic Acid, Ethyl L-Ascorbic Acid], the ORAC (first test run (first Table 3)) worked out at 13 μmoles TE/ml and the ORAC under setting [1] was determined as 7 μmoles TE/ml.
Consider `O=C1O[C@H]([C@@H](O)CO)C([O-])=C1OP(=O)([O-])[O-].[Na+].[Na+].[Na+]` [0.5% sodium ascorbyl phosphate, sodium ascorbyl phosphate], for which the ORAC (first test run (first Table 3)) was determined as 10 μmoles TE/ml.
For `Cc1c(C)c2c(c(C)c1O)CCC(C)(C(=O)O)O2` (centres unmarked) [Trolox, 6-hydroxy-2,5,7,8-tetramethylchroman-2-carboxylic acid], the ORAC reads like this: (first test run, positive control) 3940 µmol/g; (second test run, positive control) 4368 µmol/g.
Take `Cn1c(=O)c2c(ncn2C)n(C)c1=O` [2% caffeine, caffeine]: the ORAC amounted to 10 μmoles TE/ml (first test run (first Table 3)) and 0 μmoles TE/ml under setting [1].
On to `COc1cc(CCC(=O)CC(=O)CCc2ccc(O)c(OC)c2)ccc1O` [0.5% Tetrahydrodiferuloyl-methane, Tetrahydrodiferuloyl-methane], for which the ORAC (first test run (first Table 3)) is 4 μmoles TE/ml.
On to `O=C1O[C@H]([C@@H](O)CO)C(O)=C1O` [10% ascorbic acid, ascorbic acid], for which the ORAC (first test run (first Table 3)) is given as 751 μmoles TE/ml and the ORAC under setting [1] was found to be 838 μmoles TE/ml.
